Patent US20250171438A1 (Agios Pharmaceuticals, Inc., priority 2022, published 2025)

target: T1, human PAH with the R408W mutation (Homo sapiens, UniProt P00439, R408W); test: Cell Based Phenylalanine Flux Assay; design: scale not given here; details: A375 cells expressing human R408W PAH; 24 hrs compound incubation; 13C-Tyrosine by LC-MS; average where tested multiple times; read-out: AC50
T1 construct: expressed in transfected cells
T1 sequence (P00439 1-452 R408W): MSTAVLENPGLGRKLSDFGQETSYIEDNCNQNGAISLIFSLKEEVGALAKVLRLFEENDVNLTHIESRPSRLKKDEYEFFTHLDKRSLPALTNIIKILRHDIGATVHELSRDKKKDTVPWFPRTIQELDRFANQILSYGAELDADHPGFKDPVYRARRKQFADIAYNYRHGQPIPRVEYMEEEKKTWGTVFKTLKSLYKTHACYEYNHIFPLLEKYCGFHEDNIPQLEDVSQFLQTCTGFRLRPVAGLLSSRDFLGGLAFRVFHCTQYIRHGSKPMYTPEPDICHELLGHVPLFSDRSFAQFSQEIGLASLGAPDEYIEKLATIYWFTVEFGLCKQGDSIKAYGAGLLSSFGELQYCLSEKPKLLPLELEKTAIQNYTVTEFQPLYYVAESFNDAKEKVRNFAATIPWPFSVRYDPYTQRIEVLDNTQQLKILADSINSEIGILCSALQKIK

SMILES	AC50 [µM]
Cc1nc(CCN(C)C)oc1C(=O)N1CCc2[nH]cnc2[C@@H]1c1nc2ccccc2s1 [Example 1660, (R)-(4-(benzo[d]thiazol-2-yl)-6,7-dihydro-1H-imidazo[4,5-c]pyridin-5(4H)-yl)(2-(2-(dimethylamino)ethyl)-4-methyloxazol-5-yl)methanone]	> 5
O=C(c1nnc(-n2cccn2)o1)N1CCc2[nH]cnc2[C@@H]1c1nc2ccccc2s1 [Example 1791, (R)-(5-(1H-pyrazol-1-yl)-1,3,4-oxadiazol-2-yl)(4-(benzo[d]thiazol-2-yl)-6,7-dihydro-1H-imidazo[4,5-c]pyridin-5(4H)-yl)methanone]	1 to 5
Cc1nnc(C(=O)N2CCc3[nH]cnc3[C@H]2c2nc3cccc(F)c3s2)s1 [Example 1331, (S)-(4-(7-fluorobenzo[d]thiazol-2-yl)-6,7-dihydro-1H-imidazo[4,5-c]pyridin-5(4H)-yl)(5-methyl-1,3,4-thiadiazol-2-yl)methanone]	0.5 to 1
Cc1nnc(C(=O)N2CCc3[nH]cnc3[C@H]2c2nc3c(F)cccc3s2)o1 [Example 1465, (S)-(4-(4-fluorobenzo[d]thiazol-2-yl)-6,7-dihydro-1H-imidazo[4,5-c]pyridin-5(4H)-yl)(5-methyl-1,3,4-oxadiazol-2-yl)methanone]	0.5 to 1
CCc1ccc2c(C(=O)N3CCc4[nH]cnc4[C@@H]3c3nc4ccccc4s3)cnn2c1 [Example 1244, (R)-(4-(benzo[d]thiazol-2-yl)-6,7-dihydro-1H-imidazo[4,5-c]pyridin-5(4H)-yl)(6-ethylpyrazolo[1,5-a]pyridin-3-yl)methanone]	> 5
O=C(c1nnc(-c2ccc(F)c(F)c2)o1)N1CCc2[nH]cnc2[C@H]1c1nc2ccccc2s1 [Example 1801]	< 0.5
CC(F)(F)c1ncc(C(=O)N2CCc3[nH]cnc3[C@@H]2c2nc3ccccc3s2)s1 [Example 1512, (R)-(4-(benzo[d]thiazol-2-yl)-6,7-dihydro-1H-imidazo[4,5-c]pyridin-5(4H)-yl)(2-(1,1-difluoroethyl)thiazol-5-yl)methanone]	1 to 5
c1cnc(N2CCc3[nH]cnc3[C@H]2c2nc3ccccc3s2)nc1 [Example 1438]	< 0.5
Cc1nc(CC2CC2)oc1C(=O)N1CCc2[nH]cnc2[C@@H]1c1nc2ccccc2s1 [Example 1400, (R)-(4-(benzo[d]thiazol-2-yl)-6,7-dihydro-1H-imidazo[4,5-c]pyridin-5(4H)-yl)(2-(cyclopropylmethyl)-4-methyloxazol-5-yl)methanone]	1 to 5
O=C(CCC1CC1)N1CCc2[nH]cnc2[C@H]1c1nc2ccc(Br)cc2[nH]1 [Example 935, (S)-1-(4-(6-bromo-1H-benzo[d]imidazol-2-yl)-6,7-dihydro-1H-imidazo[4,5-c]pyridin-5(4H)-yl)-3-cyclopropylpropan-1-one]	< 0.5
O=C(c1cc2cccnn2c1)N1CCc2[nH]cnc2[C@@H]1c1nc2ccccc2s1 [Example 1128, (R)-(4-(benzo[d]thiazol-2-yl)-6,7-dihydro-1H-imidazo[4,5-c]pyridin-5(4H)-yl)(pyrrolo[1,2-b]pyridazin-6-yl)methanone]	> 5
O=C(c1cnn2cc(Br)ccc12)N1CCc2[nH]cnc2[C@@H]1c1nc2c(F)cccc2s1 [Example 1236, (R)-(6-bromopyrazolo[1,5-a]pyridin-3-yl)(4-(4-fluorobenzo[d]thiazol-2-yl)-6,7-dihydro-1H-imidazo[4,5-c]pyridin-5(4H)-yl)methanone]	1 to 5
CC(C)n1ncc(C(=O)N2CCc3[nH]cnc3[C@@H]2c2nc3c(F)cccc3s2)c1Cl [Example 1952, (R)-(5-chloro-1-isopropyl-1H-pyrazol-4-yl)(4-(4-fluorobenzo[d]thiazol-2-yl)-6,7-dihydro-1H-imidazo[4,5-c]pyridin-5(4H)-yl)methanone]	1 to 5
O=C(c1ocnc1-c1ccccc1)N1CCc2[nH]cnc2[C@@H]1c1nc2ccccc2s1 [Example 1441, (R)-(4-(benzo[d]thiazol-2-yl)-6,7-dihydro-1H-imidazo[4,5-c]pyridin-5(4H)-yl)(4-phenyloxazol-5-yl)methanone]	> 5
O=C(c1cn[nH]c1C(F)F)N1CCc2[nH]cnc2[C@H]1c1nc2ccccc2s1 [Example 1857]	< 0.5
O=C(c1oc(-c2ccccn2)nc1C(F)F)N1CCc2[nH]cnc2[C@@H]1c1nc2ccccc2s1 [Example 1796, (R)-(4-(benzo[d]thiazol-2-yl)-6,7-dihydro-1H-imidazo[4,5-c]pyridin-5(4H)-yl)(4-(difluoromethyl)-2-(pyridin-2-yl)oxazol-5-yl)methanone]	< 0.5

same assay, conditions: A375 cells expressing human R408W PAH; 24 hrs with compound; 13C-Tyrosine by LC-MS; average where tested multiple times

SMILES	AC50
CN1CCN(c2nc(C#N)c(C(=O)N3CCc4[nH]cnc4C3c3nc4ccccc4s3)o2)CC1 (stereo not drawn)	E, E

same assay, conditions: A375 cells expressing human R408W PAH; 24 hrs with compound; 13C-Tyrosine by LC-MS; average where tested multiple times; read-out: AC50

SMILES	AC50 [µM]
Cn1nc(-c2ccc(Cl)cc2)cc1C(=O)N1CCc2[nH]cnc2C1c1nc2c(F)cccc2s1 (stereo not drawn)	1 to 5
O=C(c1cncs1)N1CCc2[nH]cnc2C1c1nc2ccc(Cl)cc2[nH]1 (stereo not drawn)	1 to 5
Cc1nc(N2CCOCC2)oc1C(=O)N1CCCc2[nH]cnc2C1c1nc2ccccc2s1 (stereo not drawn)	1 to 5
O=C(Cc1nccs1)N1CCc2[nH]cnc2C1c1nc2c(F)cccc2s1 (stereo not drawn)	> 5
Cn1ncc(C(=O)N2CCc3[nH]cnc3C2c2nc3c(F)cccc3s2)c1Br (stereo not drawn)	1 to 5
Cn1nc(C2CC2)nc1C(=O)N1CCc2[nH]cnc2C1c1nc2c(F)cccc2s1 (stereo not drawn) [listing 1 of 2 here]	> 5
Cn1nc(C2CC2)nc1C(=O)N1CCc2[nH]cnc2C1c1nc2c(F)cccc2s1 (stereo not drawn) [listing 2 of 2 here]	1 to 5
O=C(c1ocnc1-c1ccccn1)N1CCCc2[nH]cnc2C1c1nc2ccccc2s1 (stereo not drawn)	> 5
O=C(c1cnn2cc(Br)ccc12)N1CCc2[nH]cnc2C1c1nc2ccc(F)cc2s1 (stereo not drawn)	1 to 5
O=C(c1cnn2ccccc12)N1CCc2[nH]cnc2C1c1nc2ccc(F)cc2[nH]1 (stereo not drawn)	1 to 5
O=C(C1CC1F)N1CCc2[nH]cnc2C1c1nc2ccccc2s1 (stereo not drawn)	> 5
O=C(Cc1nccs1)N1CCc2[nH]cnc2C1c1nc2ccc(F)cc2s1 (stereo not drawn)	1 to 5
O=C(c1nnc(CCCN2CCOCC2)o1)N1CCc2[nH]cnc2C1c1nc2ccccc2s1 (stereo not drawn)	> 5
O=C(c1cc2ccccn2n1)N1CCc2nc[nH]c2C1c1nc2ccccc2s1 (stereo not drawn)	1 to 5
O=C(c1ccon1)N1CCc2[nH]cnc2C1c1nc2ccccc2s1 (stereo not drawn)	> 5
O=C(c1nccs1)N1CCc2[nH]cnc2[C@H]1c1nc2ccc(Cl)cc2s1 (single isomer, unassigned)	1 to 5
CC(C)(O)c1cc(C(=O)N2CCc3[nH]cnc3C2c2nc3ccccc3s2)no1 (stereo not drawn)	1 to 5
Cc1nc(C(=O)N2CCc3[nH]cnc3C2c2nc3c(F)cccc3s2)n(C)n1 (stereo not drawn)	1 to 5
O=C(c1cnn2cc(Cl)ccc12)N1CCc2[nH]cnc2C1c1nc2ccc(Br)cc2[nH]1 (stereo not drawn)	> 5
